For the assay, the system named is Endothelial cells (HUVECs). From the text: To study vasculogenesis and to optimize the ECM composition for endothelial cell sprouting, we first developed a microfluidic model comprised of a single culture region surrounded by the media region. This device was selected to study endothelial growth without the interference of other cell types or the stroma. Since the media channel is in a different compartment from the cell culture region, it facilitated the development of a gradient of biomolecules. To encapsulate endothelial cells fibrin was chosen, as it is known to play a major role in regulating angiogenesis in 3D ECM. Endothelial cells (HUVECs) at a cell density of 20 million cells/ml were injected into the devices and growth and maturation of vascular networks were monitored over a culture period of 5 days. We introduced vascular endothelial growth factor (VEGF) in to the culture media and assessed the subsequent effects on vasculogenesis. VEGF is known as a major growth factor secreted during cancer progression which leads to formation of new blood vessels. […] We primarily compared the diameter and branching of vascular networks and further assessed the permeability of microvessels within each experimental condition.

Consider VEGF, for which the permeability of microvessels entry (VEGF in culture media vs No VEGF control) was “higher permeability”. In addition, the “structure of endothelial networks” value (VEGF in culture media vs No VEGF control, 5 day culture) is given as “impaired structurally”. For the same substance, the “diameter of the formed vascular networks” value (addition of VEGF, endothelial mono-culture in single layer platform) was “reduced”. Also, the “endothelial cell morphology and intercellular connections” value (low and high VEGF conditions vs No VEGF control, from day 1) is listed as “elongated morphology with intercellular connections”.
